According to patent US20220380761A1, “ORAL DELIVERY OF OLIGONUCLEOTIDES” (CiVi Biopharma, Inc., priority 2021, published 2022):
l = locked nucleic acid (LNA); d = 2'-deoxy (DNA)

Assays:
[1] = Oral capsule PK study of an oligo against Factor VII, with or without GalNAc, using 5-CNAC as carrier; type: in vivo, Cynomolgus monkey
Experimental: (§1) Study outline: Dry blended capsules (20 mg Factor FVII with or without GalNac/200 mg 5-CNAC) were manufactured from uniform dry blended formulations, that were filled into enterically coated Size 0, hard shell gelatin capsules. A total of 10 Cynomolgus monkeys (5 males and 5 females) were each administered a single capsule of either oligo by oral gavage, and blood samples for PK analysis were drawn pre-dose and 0.5, 1.5, 3 and 5 hours post-dosing.

[2] = Oral capsule toxicokinetic study of CIVI 008 using 5-CNAC as carrier; type: in vivo, Cynomolgus monkey; conditions: for AUC with increasing dose of CIVI 008 / Cmax with increasing dose of CIVI 008: constant dose of 5-CNAC
Excerpt: The objectives of this study were to determine the ability of 5-CNAC [Disodium N-(5-Chorosalicyloyl)-8-aminocaprylate] to facilitate oral uptake of CIVI 008 and to determine the manufacture method and dosing paradigm of CIVI 008/5-CNAC capsules that provide the most efficient oral uptake of CIVI 008 when administered to Cynomolgus monkeys of Mauritian origin.
Study outline: A total of 10 Cynomolgus monkeys (5 males and 5 females) were each dosed with 2 group A capsules on Monday and Wednesday in week 1, followed by 4 days of dosing holiday. This Monday and Wednesday dosing scheme was continued in weeks 2, 3, 5, 6, 7, 8, 13, 14, 15 and 17 using 2 group B-capsules per dose occasion in week 2, and 1 capsule of groups C to K per dose occasion in their respective weeks. During the dosing period, blood samples for PK analysis were drawn pre-dose and 0.5, 1.5, 3 and 5 hours post-dosing on Mondays and Wednesdays. Samples for clinical chemistry and hematology (see example 1) were taken pre-study and end of study.

plasma LDL = test: Plasma LDL after once-daily oral CIVI 008/5-CNAC capsule for 49 days; type: in vivo, Cynomolgus monkey; conditions: 5-CNAC vs SNAC
Experimental: The objectives of this study were to determine the ability of 5-CNAC [disodium N-(5-chorosalicyloyl)-8-aminocaprylate] to reduce plasma PCSK9 when dosed once daily for 7 weeks. The half-life of CIVI 008 in the liver of non-human primates is between 2 to 3 weeks, so after 7-weeks of dosing liver concentrations are expected to reach >80% of its steady state level.
Study outline: Dry blended capsules (20 mg CIVI 008/200 mg 5-CNAC) were manufactured from uniform dry blended formulations, that were filled into enterically coated Size 0, hard shell gelatin capsules. A total of 10 Cynomolgus monkeys (5 males and 5 females) were each administered a single capsule by oral gavage once daily for 49 days. […] During the dosing period, blood samples for PK analysis were drawn pre-dose and 0.5, 1.5, 3 and 5 hours post-dosing at study start and at day 49. Blood samples for PCSK9 and lipid analysis were drawn on week −2 and −1 pre-study, pre-dose on Day 1 and weekly thereafter for the duration of the study. Samples for clinical chemistry, coagulation and hematology were taken on week −2 and −1 pre-study, and on Day 22 and 49.

[3] = Oral capsule PK study of CIVI 008 without GalNAc using 5-CNAC as carrier; type: in vivo, Cynomolgus monkey; conditions: single oral capsule 20 mg/200 mg 5-CNAC
Excerpt: As shown in previous Examples 1 and 3, orally dosed CIVI 008 with GalNAc is rapidly internalized in the liver by the GalNAc receptor, with very little CIVI 008 escaping into general circulation at doses below that required for saturation of the GalNAc receptor. In many instances the objective is to target genes that are expressed in organs other than the liver. […] The objective of this study was to determine the systemic exposure of orally administered CIVI 008 without the GalNAc conjugate, and to compare the exposure to that of a similar oral dose of CIVI 008 with GalNAc.
as §1, with “CIVI 008” for “Factor FVII with or”, “GalNAc/200” for “GalNac/200”, “capsule” for “capsule of either oligo”

[4] = cynomolgus monkey, in vivo
Experimental: (§3) The objectives of this study were to evaluate the toxicity and reversibility of CIVI 008 and to determine the pharmacology, plasma exposure and target organ accumulation of CIVI 008 when administered daily by oral capsule to the Cynomolgus monkey of Mauritian origin for 42 days compared to administration by the subcutaneous route administered once every two weeks (investigated previously).
(§4) Oral Capsule: Capsules containing CIVI 008 (10 mg)/SNAC (100 mg) were manufactured as uniform dry blend formulations, that were filled into Size 4 hard shell gelatin capsules that were enterically coated post fill.

plasma LDL-cholesterol = test: Plasma LDL cholesterol change from baseline after daily oral CIVI 008/SNAC capsules; type: in vivo, Cynomolgus monkey
Excerpt: (§2) Clinical chemistry, PCSK9 and lipids: urea nitrogen, creatinine, total protein, albumin, globulin, albumin:globulin ratio, total bilirubin, aspartate aminotransferase, alanine aminotransferase, alkaline phosphatase, gamma glutamyltransferase, creatine kinase, calcium, inorganic phosphorus, sodium, potassium, chloride, high density lipoproteins, low density lipoprotein, very low density lipoprotein, total cholesterol, triglycerides.

[5] = Half-life of CIVI 008 in the liver; type: in vivo, non-human primates; conditions: expected after 7-weeks of once daily dosing
[6] = cynomolgus monkey, in vivo, po
Experimental: as §3, §4

[7] = Repeat-dose toxicity of CIVI 008 formulated with SNAC (GLP); type: in vivo, Cynomolgus monkey
PCSK9 = PCSK9 change from baseline after daily oral CIVI 008/SNAC capsules for 42 days; type: in vivo, Cynomolgus monkey; conditions: control animals, 20 mg CIVI 008 capsules without SNAC, daily x 42
Excerpt: as §2

[8] = single oral capsule 20 mg/200 mg 5-CNAC
[9] = CIVI 008 with 5-CNAC capsule, stated as specific aspect
[10] = dose range 5 mg to 30 mg, 200 mg 5-CNAC

## GalNac conjugated Factor FVII oligo: 13 nt LNA gapmer antisense oligo against Factor VII, SEQ ID NO: 158, with GalNAc moiety (antisense GCACCACGGTCCA; sugars from the 5' end l2 d8 l3, all phosphorothioate, methylation of C not given here; GalNAc conjugate attached, further chemistry not fully specified)
[1]; 0.5 hr samples
  species found in plasma samples: parent compound
[1]; 1.5 hr samples
  species found in plasma samples: mixture of parent compound and loss of carbohydrate moiety
[1]; 3 hr samples
  species found in plasma samples: progressive loss of carbohydrate moiety
[1]; 5 hr samples
  species found in plasma samples: progressive loss of carbohydrate moiety

## O=C(O)CCCCCCCNC(=O)c1cc(Cl)ccc1O [5-CNAC, N-(5-chlorosalicyloyl)-8-aminocaprylic acid]
[2]; 5-CNAC vs SNAC
  efficiency of carrier in facilitating oral uptake of CIVI 008: more efficient of the two carriers
Plasma LDL
  efficiency in facilitating oral uptake of CIVI 008: substantially more efficient than SNAC

## CIVI 008 without GalNAc: Unconjugated form of CIVI 008, 16 nt LNA gapmer, SEQ ID NO: 134, without GalNAc moiety (AATGCTACAAAACCCA; LNA gapmer stated, pattern not given here)
[3]
  AUC relative to similar dose of CIVI 008 with GalNac: ~8 fold
  Cmax relative to similar dose of CIVI 008 with GalNac: ~8 fold
  concentrations in the plasma: measurable concentrations
  plasma profile compared to CIVI 008 with GalNAc: very similar

## unconjugated Factor FVII oligo: 13 nt LNA gapmer antisense oligo against Factor VII, SEQ ID NO: 158, without GalNAc moiety (antisense GCACCACGGTCCA; sugars from the 5' end l2 d8 l3, all phosphorothioate, methylation of C not given here)
[1]; [8]
  AUC relative to GalNac conjugated Factor FVII oligo: ~3.5 fold
  Cmax relative to GalNac conjugated Factor FVII oligo: ~3.5 fold

## cepadacursen (AATGCTACAAAACCCA; LNA gapmer with GalNAc conjugate, pattern not given here) [CIVI 008]
[2]; 5-CNAC vs SNAC (Example 1)
  AUC0-5 with 5-CNAC carrier compared to similar dose with SNAC carrier: increase
  Cmax with 5-CNAC carrier compared to similar dose with SNAC carrier: increase
[2]; [9]
  increase of the mean AUC0-50 with respect to corresponding composition comprising SNAC instead of 5-CNAC: about 80%
  increase of the mean Cmax with respect to corresponding composition comprising SNAC instead of 5-CNAC: about 110%
[2]; dose above 25 mg
  AUC with increasing dose of CIVI 008: more than dose proportional increases
  Cmax with increasing dose of CIVI 008: more than dose proportional increases
[2]; doses up to 25 mg
  AUC with increasing dose of CIVI 008: dose proportionally up to 25 mg
  Cmax with increasing dose of CIVI 008: dose proportionally up to 25 mg
[2]; [10]
  AUC profiles, freeze-dried vs dry blended capsules: very similar
  Cmax profiles, freeze-dried vs dry blended capsules: very similar
[4]
  liver concentrations, difference between the SQ and PO arms: approximately one
Plasma LDL-cholesterol; control animals, 20 mg CIVI 008 capsules without SNAC, throughout the study
  LDL-c reductions: fluctuated around baseline values
Plasma LDL-cholesterol; end of recovery
  LDL levels at the end of recovery: had yet to fully return to baseline
Plasma LDL-cholesterol; recovery period after 42 days oral dosing with SNAC
  LDL levels at the end of dosing, persistence: maintained for two weeks post-dosing
[5]
  liver concentrations as share of steady state level: > 80%
[6]
  form of CIVI 008 detected in plasma (HPLC peak): mixture of parent compound and metabolites
  form of CIVI 008 detected in plasma (HPLC retention time): absorbed intact from the gut
  mean Tmax: ≤ 30 min
[7]; QD oral dosing for 42 days
  histopathological changes in intestinal tract (duodenum, jejunum, ileum and colon): no local histopathological changes
[7]; end of dosing and end of recovery
  macroscopic or microscopic findings suggesting local or systemic effects: no macroscopic or microscopic findings
[7]; following oral capsule administration
  organ weight changes: no organ weight changes
PCSK9
  mean PCSK9 reductions: comparatively small
